{"source": "patent US11927589B2", "about": "“Carrier peptide fragment for nucleolar localization and use thereof” (TOAGOSEI CO., LTD., priority 2021, dated 2024)", "key": {"[1]": {"assay": "Cytotoxicity examination by the inventors", "format": "cell-based", "protocol": "In all of the amino acid sequences shown in SEQ ID NOs 1 to 4, 11 amino acid residues among 13 amino acid residues are composed of basic amino acids (arginine and lysine). […] On the other hand, in the carrier peptide fragment composed of any of the amino acid sequences shown in SEQ ID NOs 1 to 4, the inventors have confirmed through examination that, even if the concentration of the carrier peptide fragment is 100 μM, there is almost no cytotoxicity, and the cytotoxicity is much lower than that of R8. […] Although the details of the mechanism are not clear, in the carrier peptide fragment disclosed here, it is estimated that inclusion of a threonine residue and a leucine residue which are neutral amino acids at the 4th and 5th positions in addition to basic amino acids contributes to reduction of cytotoxicity."}, "[2]": {"system": "HeLa cells", "assay": "Evaluation of cell membrane permeability by flow cytometry (Test 1)", "settings": "10 μM, 20 hours incubation", "method": "HeLa cells were cultured in a DMEM (Dulbecco's modified Eagle's medium (Cat No. 043-30085 commercially available from FUJIFILM Wako Pure Chemical Corporation)) containing 10% FBS (fetal bovine serum), which is a general culture medium.\nHeLa cells adhered to a culture plate were washed with PBS and a 0.25% trypsin/EDTA solution was then added, and the cells were incubated at 37° C. for 3 minutes. After the incubation, a 10% FBS-containing DMEM was added, trypsin was inactivated, and centrifugation was then performed at 150×g for 5 minutes to precipitate cells. […]\nFor the obtained cells (cell pellets), the cell permeability of Sample 1 was analyzed using a flow cytometer. […]\nUsing the flow cytometer, gating was performed based on forward scatter (FSC) and side scatter (SSC), a gate was set for a cell population to be analyzed, and the fluorescent intensity was measured for the cell population within such a gate. […] For measurement of the fluorescent intensity, a fluorescence detector FL2 (optimal detection wavelength of about 543 nm) of the flow cytometer that can detect a fluorescence wavelength of FAM was used. The measurement results were analyzed using commercially available analysis software “FlowJo (registered trademark)” (commercially available from TreeStar) to obtain a mean fluorescent intensity (MFI) of the cell population to be measured."}, "[3]": {"system": "HeLa cells", "assay": "Intracellular localization by confocal laser scanning microscopy (Test 2)", "format": "cell-based, human", "settings": "5 μM, 20 hours, methanol-fixed, DAPI/FAM merged images", "protocol": "In this test, localization of Samples 1 to 5 in HeLa cells was analyzed. HeLa cells were seeded on collagen-coated 8-well slides at about 2×10^4 cells/well, and cultured overnight in the presence of 5% CO2 at 37° C. A 10% FBS-containing DMEM was used as the cell culture solution.\nThen, the supernatant (culture solution) was removed, ice-cooled PBS was added, and washing on ice was performed three times. Then, ice-cooled methanol was added, the sample was left at −20° C. for 10 minutes, and the cells were immobilized. Then, methanol was removed, and washing was then performed three times with ice-cooled PBS. Then, a DAPI-containing encapsulant (commercially available from ThemoFisher Scientific) and a cover glass were used for encapsulation and fluorescence observation was performed under a confocal laser scanning microscope. […] Here, all FIGS. 2A to 2E show images in which fluorescent images of DAPI and FAM were merged."}}, "note": "FAM = FAM: 5(6)-carboxyfluorescein, a fluorescent dye"}
{"molecule": "N=C(N)NCCC[C@H](NC(=O)[C@H](CCCNC(=N)N)NC(=O)[C@H](CCCNC(=N)N)NC(=O)[C@H](CCCNC(=N)N)NC(=O)[C@H](CCCNC(=N)N)NC(=O)[C@H](CCCNC(=N)N)NC(=O)[C@H](CCCNC(=N)N)NC(=O)[C@@H](N)CCCNC(=N)N)C(=O)O", "note": "[Example R8, octaarginine]", "values": [{"measurement": "cytotoxicity", "setting": "[1]", "result": "relatively high"}]}
{"molecule": "Ac-KKRTLRKKKRKKR-FAM (Ac-KKRTLRKKKRKKR-{FAM}) [Example 1]", "values": [{"measurement": "MFI value compared with the MFI value of Example 5", "setting": "[2]", "result": "more than three times as high"}]}
{"molecule": "5(6)-carboxyfluorescein [Example 6]", "values": [{"measurement": "relative value of MFI (mean fluorescent intensity), MFI value of Example 6 set to 1", "setting": "[2]; flow cytometer FL2", "result": 1}]}
{"molecule": "Ac-KKRTLRKNDRKKR-FAM (Ac-KKRTLRKNDRKKR-{FAM}) [Example 5]", "values": [{"measurement": "fluorescence of FAM observed in the nucleolus", "setting": "[3]", "result": "slightly observed in the nucleolus"}]}
